Results as given in patent US20210254056A1, “IDENTIFICATION AND TARGETED MODULATION OF GENE SIGNALING NETWORKS” (CAMP4 THERAPEUTICS CORPORATION, priority 2017, published 2021).

Columns and labels:
[1] = system: primary human hepatocytes
[2] = system: primary human hepatocytes; test: RNA-seq of primary human hepatocytes treated with 39 small molecules (pilot and validation); settings: for significant modulation of gene expression: RNA-seq, p-value≤0.05, primary human hepatocytes, the modulated genes are listed in the block; for Number (#) of genes having significantly changed expression: pilot RNA-seq study of Example 2, significance: FPKM≥0.5, log 2(fold change)≥1, q-value ≤0.05
hepatocytes [3] = test: RNA-seq of hepatocytes stimulated with the compounds of Table 68; settings: hepatocytes, RNA-seq
hepatocytes [4] = test: qRT-PCR validation of the Example 12 RNA-seq results;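 further: Compound-treated versus DMSO control, target Ct normalized to GAPDH or β-actin reference (ΔΔCt method), positive values mean higher expression than DMSO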
[5] = system: Hematopoietic progenitor CD34+ cells; test: qRT-PCR after inducible (pTRIPZ) shRNA knockdown in CD34+ cells; type: cell-based, human; settings: for RQ, BAG1: relative quantification of BAG1 expression vs puro_shNT; for RQ, BAG1 / RQ, BAX / RQ, GATA1 / RQ, GATA2 / RQ, MDM2: pTRIPZ dox inducible shRNA, B-Actin internal control, Table 81; for RQ, BAX: relative quantification of BAX expression vs puro_shNT; for RQ, GATA1: relative quantification of GATA1 expression vs puro_shNT; for RQ, GATA2: relative quantification of GATA2 expression vs puro_shNT; for RQ, HBB: relative quantification of HBB expression vs puro_shNT; for RQ, HBB / RQ, RPL11 / RQ, RPS19 / RQ, p21 / RQ, p53: inducible pTRIPZ shRNA, CD34+ cells, B-ACTIN, Table 80; for RQ, MDM2: relative quantification of MDM2 expression vs puro_shNT; for RQ, RPL11: relative quantification of RPL11 expression vs puro_shNT; for RQ, RPS19: relative quantification of RPS19 expression vs puro_shNT; for RQ, p21: relative quantification of p21 expression vs puro_shNT; for RQ, p53: relative quantification of p53 expression vs puro_shNT
Experimental: Conditionally immortalized cord blood CD34+ cells were transduced with the shRNA lentiviruses using the retronectin-transduction protocol (Clontech). Puromycin selection was performed 24-48 hours post-transduction. Cells were counted to monitor cell viability. After 12 days, which allowed for a large biomass, knockdown efficiency was analyzed. qRT-PCR was used to identify changes in mRNA, and Western blot was used to determine levels of protein depletion.
For RNA extraction, 1×10^6 cells were harvested in 500 μL of TRIZOL reagent (Thermo Scientific), and incubated for 5 minutes at room temperature. Then, 100 μL of chloroform was added to the cells, and the mixture was vortexed and then centrifuged at 12,000× gravity for 15 minutes. The aqueous phase was transferred to fresh tubes and one volume of 70% ethanol was added. The TRIZOL Plus RNA purification Kit (Thermo Scientific) was used for the remaining extraction protocol according to the manufacturer's instructions. For the conversion of RNA to cDNA the High Capacity cDNA RT kit (Thermo Scientific) was used according to the manufacturer's instructions. The cDNA was analyzed with qRT-PCR to determine the fold change of knockdown cells using Taqman Fast PCR mix and Applied Biosystems probes (Thermo Scientific).
shRNAs targeting RPS19, p53, or RPL11 were delivered to normal cord blood erythroblast cells using either the pLKO (constitutive) and pTRIPZ (inducible) plasmids described in Example 1. The mRNA expression of the p53 pathway proteins; progenitor factor GATA2; and differentiation factors HBB and GATA1 were measured by qRT-PCR. Cells not transduced with a shRNA as well as cells transduced with a non-targeting shRNA served as controls.
Hematopoietic progenitor CD34^+ cells were transduced with the pTRIPZ inducible lentiviral plasmids containing p53_sh1, puro_shNT, RPL11_1, RPL11_2, RPS19_1, or RPS19_2.
The relative expression of GATA1, GATA2, MDM2, BAX, and BAG1 were also analyzed in cells transduced with a pTRIPZ dox inducible shRNA. B-Actin was used as an internal control.

CC(C)N(CCC(C(N)=O)(c1ccccc1)c1ccccn1)C(C)C (centres unmarked) [MT-189, Disopyramide]
Log2 fold changes in gene expression: CYP2C19 [1]: 0.18
Log2 fold changes in gene expression: CYP3A4 [1]: 0.03
significant modulation of gene expression [2]: significantly (p-value≤0.05) modulate
Number (#) of genes having significantly changed expression [2]: 7

CCc1oc2ccccc2c1C(=O)c1cc(Br)c(O)c(Br)c1 [MT-220, Benzbromarone]
Log2 fold changes in gene expression: CYP2C19 [1]: 0.57
Log2 fold changes in gene expression: CYP3A4 [1]: 0.87
cytotoxicity in hepatocytes [1]: cytotoxic
significant modulation of gene expression [2]: significantly (p-value≤0.05) modulate
Number (#) of genes having significantly changed expression [2]: 119

CCN1CCCC1CNC(=O)c1cc(S(N)(=O)=O)ccc1OC (centres unmarked) [MT-277, Sulpiride]
Log2 fold changes in gene expression: CYP2C19 [1]: 0.04
Log2 fold changes in gene expression: CYP3A4 [1]: 0
significant modulation of gene expression [2]: significantly (p-value≤0.05) modulate
Number (#) of genes having significantly changed expression [2]: 8

C#C[C@]1(O)CC[C@H]2[C@@H]3CCC4=Cc5oncc5C[C@]4(C)[C@H]3CC[C@@]21C [MT-487, Danazol]
Log2 fold changes in gene expression: CYP2C19 [1]: −0.03
Log2 fold changes in gene expression: CYP3A4 [1]: 0.11
significant modulation of gene expression [2]: significantly (p-value≤0.05) modulate
Number (#) of genes having significantly changed expression [2]: 5

CCc1nn(CCCN2CCN(c3cccc(Cl)c3)CC2)c(=O)n1CCOc1ccccc1 [MT-505, Nefazodone]
Log2 fold changes in gene expression: CYP2C19 [1]: −0.03
Log2 fold changes in gene expression: CYP3A4 [1]: 0.4
significant modulation of gene expression [2]: significantly (p-value≤0.05) modulate
Number (#) of genes having significantly changed expression [2]: 18

C[C@]12C=CC(=O)C=C1CC[C@@H]1[C@@H]2C(=O)C[C@@]2(C)[C@H]1CC[C@]2(O)C(=O)CO [MT-861, Prednisone]
Cuffdiff log2fc, AMACR (hepatocytes [3]; log 2 fold change in AMACR gene expression, Cuffdiff): −1.4
DESeq log2fc, AMACR (hepatocytes [3]; log 2 fold change in AMACR gene expression, DESeq): −1.24
Cuffdiff log2fc, ARG1 (hepatocytes [3]; log 2 fold change in ARG1 gene expression, Cuffdiff): 1.48
DESeq log2fc, ARG1 (hepatocytes [3]; log 2 fold change in ARG1 gene expression, DESeq): 1.59
Cuffdiff log2fc, CA2 (hepatocytes [3]; log 2 fold change in CA2 gene expression, Cuffdiff): −1.05
DESeq log2fc, CA2 (hepatocytes [3]; log 2 fold change in CA2 gene expression, DESeq): −0.95
Cuffdiff log2fc, CIDEC (hepatocytes [3]; log 2 fold change in CIDEC gene expression, Cuffdiff): 1.02
DESeq log2fc, CIDEC (hepatocytes [3]; log 2 fold change in CIDEC gene expression, DESeq): 1.19
Cuffdiff log2fc, CPS1 (hepatocytes [3]; log 2 fold change in CPS1 gene expression, Cuffdiff): 2.14
DESeq log2fc, CPS1 (hepatocytes [3]; log 2 fold change in CPS1 gene expression, DESeq): 2.17
Cuffdiff log2fc, ENO3 (hepatocytes [3]; log 2 fold change in ENO3 gene expression, Cuffdiff): −1.24
DESeq log2fc, ENO3 (hepatocytes [3]; log 2 fold change in ENO3 gene expression, DESeq): −1.03
Cuffdiff log2fc, G6PC (hepatocytes [3]; log 2 fold change in G6PC gene expression, Cuffdiff): 1.02
DESeq log2fc, G6PC (hepatocytes [3]; log 2 fold change in G6PC gene expression, DESeq): 1.03
Cuffdiff log2fc, GYS2 (hepatocytes [3]; log 2 fold change in GYS2 gene expression, Cuffdiff): 2.21
DESeq log2fc, GYS2 (hepatocytes [3]; log 2 fold change in GYS2 gene expression, DESeq): 2.49
Cuffdiff log2fc, HGD (hepatocytes [3]; log 2 fold change in HGD gene expression, Cuffdiff): 1.23
DESeq log2fc, HGD (hepatocytes [3]; log 2 fold change in HGD gene expression, DESeq): 1.31
Cuffdiff log2fc, HOGA1 (hepatocytes [3]; log 2 fold change in HOGA1 gene expression, Cuffdiff): 1
DESeq log2fc, HOGA1 (hepatocytes [3]; log 2 fold change in HOGA1 gene expression, DESeq): 1.04
Cuffdiff log2fc, HPGD (hepatocytes [3]; log 2 fold change in HPGD gene expression, Cuffdiff): 2.07
DESeq log2fc, HPGD (hepatocytes [3]; log 2 fold change in HPGD gene expression, DESeq): 2.29
Cuffdiff log2fc, NCF2 (hepatocytes [3]; log 2 fold change in NCF2 gene expression, Cuffdiff): −1.71
DESeq log2fc, NCF2 (hepatocytes [3]; log 2 fold change in NCF2 gene expression, DESeq): −1.6
Cuffdiff log2fc, RMRP (hepatocytes [3]; log 2 fold change in RMRP gene expression, Cuffdiff): −1.43
DESeq log2fc, RMRP (hepatocytes [3]; log 2 fold change in RMRP gene expression, DESeq): −0.78
Cuffdiff log2fc, SLC37A4 (hepatocytes [3]; log 2 fold change in SLC37A4 gene expression, Cuffdiff): 1.16
DESeq log2fc, SLC37A4 (hepatocytes [3]; log 2 fold change in SLC37A4 gene expression, DESeq): 1.18
Cuffdiff log2fc, TAT (hepatocytes [3]; log 2 fold change in TAT gene expression, Cuffdiff): 2.37
DESeq log2fc, TAT (hepatocytes [3]; log 2 fold change in TAT gene expression, DESeq): 2.48
Cuffdiff log2fc, TDO2 (hepatocytes [3]; log 2 fold change in TDO2 gene expression, Cuffdiff): 1.05
DESeq log2fc, TDO2 (hepatocytes [3]; log 2 fold change in TDO2 gene expression, DESeq): 1.21
qRT-PCR log2fc, AMACR (hepatocytes [4]; log 2 fold change in AMACR gene expression): −0.35
qRT-PCR log2fc, ARG1 (hepatocytes [4]; log 2 fold change in ARG1 gene expression): 1.53
qRT-PCR log2fc, CA2 (hepatocytes [4]; log 2 fold change in CA2 gene expression): −0.1
qRT-PCR log2fc, CIDEC (hepatocytes [4]; log 2 fold change in CIDEC gene expression): 1.1
qRT-PCR log2fc, CPS1 (hepatocytes [4]; log 2 fold change in CPS1 gene expression): 0.61
qRT-PCR log2fc, ENO3 (hepatocytes [4]; log 2 fold change in ENO3 gene expression): −0.03
qRT-PCR log2fc, G6PC (hepatocytes [4]; log 2 fold change in G6PC gene expression): 0.76
qRT-PCR log2fc, GYS2 (hepatocytes [4]; log 2 fold change in GYS2 gene expression): 0.71
qRT-PCR log2fc, HGD (hepatocytes [4]; log 2 fold change in HGD gene expression): 0.5
qRT-PCR log2fc, HOGA1 (hepatocytes [4]; log 2 fold change in HOGA1 gene expression): 1.47
qRT-PCR log2fc, HPGD (hepatocytes [4]; log 2 fold change in HPGD gene expression): 0.36
qRT-PCR log2fc, NCF2 (hepatocytes [4]; log 2 fold change in NCF2 gene expression): −0.4
qRT-PCR log2fc, RMRP (hepatocytes [4]; log 2 fold change in RMRP gene expression): −0.33
qRT-PCR log2fc, SLC37A4 (hepatocytes [4]; log 2 fold change in SLC37A4 gene expression): 0.99
qRT-PCR log2fc, TAT (hepatocytes [4]; log 2 fold change in TAT gene expression): 3.26
qRT-PCR log2fc, TDO2 (hepatocytes [4]; log 2 fold change in TDO2 gene expression): 1.41

RPS19_1 (guide TAGAACCAGTTCTCATCGTA; chemistry not fully specified; listed as Homo sapiens)
RQ, BAG1 [5]: 1.16
RQ, BAX [5]: 1.57
RQ, GATA1 [5]: 0.67
RQ, GATA2 [5]: 1.53
RQ, HBB [5]: 0.50
RQ, MDM2 [5]: 2.72
RQ, RPL11 [5]: 1.90
RQ, RPS19 [5]: 0.47
RQ, p21 [5]: 5.87
RQ, p53 [5]: 1.66

RPS19_2 (guide CTTGACGGTATCCACCCATT; chemistry not fully specified; listed as Homo sapiens)
RQ, BAG1 [5]: 1.08
RQ, BAX [5]: 1.29
RQ, GATA1 [5]: 0.87
RQ, GATA2 [5]: 1.23
RQ, HBB [5]: 0.55
RQ, MDM2 [5]: 1.38
RQ, RPL11 [5]: 1.46
RQ, RPS19 [5]: 0.77
RQ, p21 [5]: 1.73
RQ, p53 [5]: 1.12
